Laboratory results as given in patent US10849896B2, “Sortilin-binding small molecules for increasing glucose uptake” (University of South Florida, priority 2015, dated 2020).

How the values were obtained:
Format in all cases: cell-based, mouse
[1] = tested on: sortilin mRNA; test: RT-PCR for sortilin mRNA in treated 3T3L1 cells; conditions: 500 nM, added day 3 of differentiation, maintained to day 8; total RNA
Procedure: (§1) 2-(3,5-Dioxo-4-azatricyclo[5.2.1.0˜2,6˜]dec-8-en-4-yl)-4-methylpentanoic acid and 4-[(3,4-dichlorophenyl)amino]-3-(3-methylbenzyl)-4-oxobutanoic acid were used to treat 3T3L1 cells at 500 nM concentration on day 3 of differentiation and maintained in culture up to day 8 when the cells mature into adipocytes with well-developed lipid bodies. Whole cell lysate was isolated and western blot analysis was performed using anti-sortilin antibody. […] To determine the compounds effect sortilin gene expression, 3T3L1 cells were treated as above and total RNA was isolated. RT-PCR was performed using sortilin primers.

[2] = tested on: 3T3L1 cells; test: [3-H]-deoxy-2-D-Glucose uptake in 3T3L1 adipocytes; conditions: 500 nM; for glucose uptake: added day 3 of differentiation, maintained to day 8, without insulin; for glucose uptake with addition of insulin: day 3 to day 8, 100 nM insulin for 30 minutes
Procedure: To examine glucose uptake, 3T3L1 cells were treated on day 3 of differentiation with either 2-(3,5-dioxo-4-azatricyclo[5.2.1.0(2,6)]dec-8-en-4-yl)-4-methylpentanoic acid or 4-[(3,4-dichlorophenyl)amino]-3-(3-methylbenzyl)-4-oxobutanoic acid at 500 nM concentration and maintained in culture up to day 8 when the cells mature into adipocytes with well-developed lipid bodies. After 100 nM insulin was added to cells and maintained for 30 minutes, [3-H]-deoxy-2-D-Glucose uptake was measured.

[3] = tested on: sortilin; test: Western blot for sortilin expression in treated 3T3L1 cells; conditions: 500 nM, added day 3 of differentiation, maintained to day 8; whole cell lysate
Procedure: as §1

SMILES	mRNA levels of sortilin (RT-PCR) [1]	glucose uptake [2]	glucose uptake with addition of insulin [2]	sortilin expression (western blot, anti-sortilin antibody) [3]
CC(C)CC(C(=O)O)N1C(=O)C2C3C=CC(C3)C2C1=O (centres unmarked) [2-(3,5-dioxo-4-azatricyclo[5.2.1.0(2,6)]dec-8-en-4-yl)-4-methylpentanoic acid]	not affected	increase in glucose uptake	further increased	increase in sortilin expression
Cc1cccc(CC(CC(=O)O)C(=O)Nc2ccc(Cl)c(Cl)c2)c1 (centres unmarked) [4-[(3,4-dichlorophenyl)amino]-3-(3-methylbenzyl)-4-oxobutanoic acid]	not affected	increase in glucose uptake	further increased	increase in sortilin expression
